Measurements reported in patent US12577267B2, “Pyrimidine compounds for use as MAP4K1 inhibitors” (GLENMARK SPECIALITY S.A., priority 2021, dated 2026).
Counter-ions that a name gives are not always drawn. Like-named read-outs stand apart in the source and are kept apart here.

Target: MAP4K-1 enzyme (Homo sapiens, UniProt Q92918)
Experiment: FRET one step binding assay (tracer displacement)
Details: for inhibition at 1 µM / % Inhibition at 1 μM: 1 μM compound; for inhibition at 10 µM / % Inhibition at 10 μM: 10 μM compound
Protocol: This is a one step binding assay based on the binding and displacement of the labeled tracer, where compound addition is followed by addition of the anti-GST tagged europium (Eu) as the donor and Alexa Fluor-labeled tracer as the acceptor.
Test compounds were dissolved in dimethylsulfoxide (DMSO) to prepare 10.0 mM stock solutions and diluted to the desired concentration. The final concentration of DMSO in the reaction was 3% (v/v). The assay mixture was prepared by mixing 2 nM of the Eu-Anti-GST Antibody and 5 nM MAP4K-1 enzyme in the Kinase buffer containing 50 mM HEPES (pH 7.5), 10 mM MgCl2, 1 mM EGTA, 0.01% Brij-35 with or without the desired concentration of the compound. The reaction was incubated on ice for 15 min. […] After shaking for 5 min the reaction was further incubated for 1 hour at room temperature and this was kept at 4° C. and read on ARTEMIS reader as per the kit instructions (Thermo). […] The activity was calculated as percent of control reaction. IC50 values were calculated from dose response curve by nonlinear regression analysis using GraphPad Prism software.

Sequence of MAP4K-1 enzyme (Q92918 whole entry): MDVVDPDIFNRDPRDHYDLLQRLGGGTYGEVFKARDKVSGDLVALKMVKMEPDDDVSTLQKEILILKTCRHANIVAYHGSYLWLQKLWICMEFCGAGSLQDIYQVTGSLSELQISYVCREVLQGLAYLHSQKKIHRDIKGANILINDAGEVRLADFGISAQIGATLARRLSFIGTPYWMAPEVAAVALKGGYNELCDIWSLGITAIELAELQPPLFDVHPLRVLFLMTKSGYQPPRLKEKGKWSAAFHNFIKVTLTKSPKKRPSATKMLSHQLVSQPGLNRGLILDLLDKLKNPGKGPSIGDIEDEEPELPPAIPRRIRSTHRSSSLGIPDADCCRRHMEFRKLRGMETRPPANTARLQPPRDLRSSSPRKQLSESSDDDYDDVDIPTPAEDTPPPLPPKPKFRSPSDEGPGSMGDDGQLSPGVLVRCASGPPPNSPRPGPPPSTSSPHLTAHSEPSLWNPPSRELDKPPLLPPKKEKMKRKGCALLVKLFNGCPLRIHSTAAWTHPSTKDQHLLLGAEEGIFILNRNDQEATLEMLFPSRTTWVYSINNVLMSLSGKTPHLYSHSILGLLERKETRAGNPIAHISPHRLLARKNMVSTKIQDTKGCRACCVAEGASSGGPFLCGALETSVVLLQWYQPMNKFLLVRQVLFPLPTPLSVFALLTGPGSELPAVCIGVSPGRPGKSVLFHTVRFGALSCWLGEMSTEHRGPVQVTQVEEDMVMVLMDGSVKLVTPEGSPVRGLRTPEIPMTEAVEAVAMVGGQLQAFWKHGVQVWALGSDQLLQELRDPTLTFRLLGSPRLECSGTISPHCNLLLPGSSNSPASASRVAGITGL

| Structure (SMILES) | inhibition at 1 µM [%] | inhibition at 10 µM [%] | IC50 (IC50 (nM)) [nM] | other results |
| --- | --- | --- | --- | --- |
| COc1cc2c(cc1Nc1ncc(Cl)c(Nc3ccc(OS(=O)(=O)F)cc3P(C)(C)=O)n1)C(C)N(C)CC2 (racemic) [Example 12, ±4-((5-chloro-2-((6-methoxy-1,2-dimethyl-1,2,3,4-tetrahydroisoquinolin-7-yl)amino)pyrimidin-4-yl)amino)-3-(dimethylphos-phoryl)phenylsulfurofluoridate dihydrochloride] | 87.5 | 85.9 | < 50 | – |
| COc1cc2c(cc1Nc1ncc(Cl)c(Nc3ccc(N(C)S(=O)(=O)F)cc3P(C)(C)=O)n1)C(C)N(C)CC2 (racemic) [Example 44, ±(4-((5-Chloro-2-((6-methoxy-1,2-dimethyl-1,2,3,4-tetrahydroisoquinolin-7-yl)amino)pyrimidin-4-yl)amino)-3-dimethylphosphoryl)phenyl) (methyl)sulfamoylfluoride dihydrochloride] | 81.6 | 79.6 | < 50 | – |
| COc1cc2c(cc1Nc1ncc(Cl)c(Nc3ncc(OS(=O)(=O)F)cc3P(C)(C)=O)n1)C(C)N(C)CC2 (single isomer, unassigned; isomer 1) [Example 23, 6-((5-Chloro-2-((6-methoxy-1,2-dimethyl-1,2,3,4-tetrahydroisoquinolin-7-yl)amino)pyrimidin-4-yl)amino)-5-(dimethylphosphory)pyridin-3-yl sulfofluoridate dihyrochloride (Isomer 1)] | 86.1 | 89.6 | 50 to 100 | – |
| COc1cc2c(cc1Nc1ncc(Cl)c(Nc3ccc(OS(=O)(=O)F)cc3P(C)(C)=O)n1)C(C)N(C)CC2 (single isomer, unassigned; isomer 1) [Example 29, 4-((5-Chloro-2-((6-methoxy-1,2-dimethyl-1,2,3,4-tetrahydroisoquinolin-7-yl)amino)pyrimidin-4-yl)amino)-3-(dimethylphosphoryl)phenyl sulfofluoridate dihydrochloride (Isomer 1)] | 76.5 | 76.9 | < 50 | – |
| COc1cc2c(cc1Nc1ncc(Cl)c(Nc3cc(OS(=O)(=O)F)ccc3P(C)(C)=O)n1)C(C)N(C)CC2 (single isomer, unassigned; isomer 1) [Example 31, 3-((5-Chloro-2-((6-methoxy-1,2-dimethyl-1,2,3,4-tetrahydroisoquinolin-7-yl)amino)pyrimidin-4-yl)amino)-4-(dimethylphosphoryl)phenyl sulfofluoridate dihydrochloride (Isomer 1)] | 84.4 | 89 | < 50 | – |
| COc1cc2c(cc1Nc1ncc(Cl)c(Nc3ccc(OS(=O)(=O)F)cc3P(C)(C)=O)n1)CN(C)C(C)C2 (single isomer, unassigned; isomer 1) [Example 33, 4-((5-Chloro-2-((6-methoxy-2,3-dimethyl-1,2,3,4-tetrahydroisoquinolin-7-yl)amino)pyrimidin-4-yl)amino)-3-(dimethylphosphoryl)phenyl sulfofluoridate dihydrochloride (Isomer 1)] | 92.8 | 87.8 | < 50 | – |
| COc1cc2c(cc1Nc1ncc(Cl)c(Nc3cc(OS(=O)(=O)F)ccc3P(C)(C)=O)n1)CN(C)C(C)C2 (single isomer, unassigned; isomer 1) [Example 35, 3-((5-Chloro-2-((6-methoxy-2,3-dimethyl-1,2,3,4-tetrahydroisoquinolin-7-yl)amino)pyrimidin-4-yl)amino)-4-(dimethylphosphoryl)phenyl sulfofluoridate dihydrochloride (Isomer 1)] | 83 | 79.1 | < 50 | – |
| COc1cc2c(cc1Nc1ncc(Cl)c(Nc3ncc(OS(=O)(=O)F)cc3P(C)(C)=O)n1)C(C)N(C)CC2 (single isomer, unassigned; isomer 2) [Example 24, 6-((5-Chloro-2-((6-methoxy-1,2-dimethyl-1,2,3,4-tetrahydroisoquinolin-7-yl)amino)pyrimidin-4-yl)amino)-5-(dimethylphosphoryl)pyridin-3-yl sulfofluoridate dihydrochloride (Isomer 2)] | – | – | < 50 | % Inhibition at 1 μM (1 µM): 86.68%; % Inhibition at 10 μM (10 µM): 85.52% |
| COc1cc2c(cc1Nc1ncc(Cl)c(Nc3cc(OS(=O)(=O)F)ccc3P(C)(C)=O)n1)C(C)N(C)CC2 (single isomer, unassigned; isomer 2) [Example 32, 3-((5-Chloro-2-((6-methoxy-1,2-dimethyl-1,2,3,4-tetrahydroisoquinolin-7-yl)amino)pyrimidin-4-yl)amino)-4-(dimethylphosphoryl)phenyl sulfofluoridate dihydrochloride (Isomer 2)] | – | – | – | IC50: < 50 nM; % Inhibition at 1 μM (1 µM): 84.51%; % Inhibition at 10 μM (10 µM): 89.25% |
| COc1cc2c(cc1Nc1ncc(Cl)c(Nc3ccc(OS(=O)(=O)F)cc3P(C)(C)=O)n1)CN(C)C(C)C2 (single isomer, unassigned; isomer 2) [Example 34, 4-((5-Chloro-2-((6-methoxy-2,3-dimethyl-1,2,3,4-tetrahydroisoquinolin-7-yl)amino)pyrimidin-4-yl)amino)-3-(dimethylphosphoryl)phenyl sulfofluoridate dihydrochloride (Isomer 2)] | – | – | – | IC50: < 50 nM; % Inhibition at 1 μM (1 µM): 84.26%; % Inhibition at 10 μM (10 µM): 86.64% |
| COc1cc2c(cc1Nc1ncc(Cl)c(Nc3cc(OS(=O)(=O)F)ccc3P(C)(C)=O)n1)CN(C)C(C)C2 (single isomer, unassigned; isomer 2) [Example 36, 3-((5-Chloro-2-((6-methoxy-2,3-dimethyl-1,2,3,4-tetrahydroisoquinolin-7-yl)amino)pyrimidin-4-yl)amino)-4-(dimethylphosphoryl)phenyl sulfofluoridate dihydrochloride (Isomer 2)] | – | – | – | IC50: < 50 nM; % Inhibition at 1 μM (1 µM): 85.29%; % Inhibition at 10 μM (10 µM): 83.76% |
| COc1cc2c(cc1Nc1ncc(Cl)c(Nc3ccc(O)cc3P(C)(C)=O)n1)CN(C)CC2 [Example 1, (2-((5-Chloro-2-((6-methoxy-2-methyl-1,2,3,4-tetrahydroisoquinolin-7-yl)amino)pyrimidin-4-yl)amino)-5-hydroxyphenyl)dimethylphosphineoxide dihydrochloride] | 87.2 | 86.5 | – | IC50 (read-out: IC50): < 50 nM |
| COc1cc2c(cc1Nc1ncc(C(N)=O)c(Nc3ccc(OS(=O)(=O)F)cc3P(C)(C)=O)n1)CN(C)CC2 [Example 3, 4-((5-Carbamoyl-2-((6-methoxy-2-methyl-1,2,3,4-tetrahydroisoquinolin-7-yl)amino)pyrimidin-4-yl)amino)-3-(dimethylphosphoryl)phenyl sulfurofluoridate dihydrochloride] | 85.6 | 91.2 | < 50 | – |
| [2H]C([2H])([2H])N1CCc2cc(OC)c(Nc3ncc(Cl)c(Nc4ccc(OS(=O)(=O)F)cc4P(C)(C)=O)n3)cc2C1 [Example 4, 4-((5-Chloro-2-((6-methoxy-2-(methyl-d3)-1,2,3,4-tetrahydroisoquinolin-7-yl)amino)pyramidin-4-yl)amino)-3-(dimethylphosphoryl) phenylsulfurofluoridate dihydrochloride] | 72.9 | 78.4 | < 50 | – |
| Cl.Cl.[2H]C([2H])([2H])Oc1cc2c(cc1Nc1ncc(Cl)c(Nc3ccc(OS(=O)(=O)F)cc3P(C)(C)=O)n1)CN(C)CC2 [Example 5, 4-((5-Chloro-2-((6-(methoxy-d3)-2-methyl-1,2,3,4-tetrahydroisoquinolin-7-yl)amino)pyrimidin-4-yl)amino)-3-(dimethylphosphoryl)phenyl sulfurofluoridate dihydrochloride] | 78.1 | 82.5 | < 50 | – |
| [2H]C([2H])([2H])Oc1cc2c(cc1Nc1ncc(Cl)c(Nc3ccc(OS(=O)(=O)F)cc3P(C)(C)=O)n1)CN(C([2H])([2H])[2H])CC2 [Example 6, 4-((5-Chloro-2-((6-methoxy-d3)-2-(methyl-d3)-1,2,3,4-tetrahydroisoquinolin-7-yl)amino)pyrimidin-4-yl)amino)-3-(dimethylphosphoryl)phenyl sulfurofluoridate dihydrochloride] | 80 | 82 | < 50 | – |
| COc1cc2c(cc1Nc1ncc(Cl)c(Nc3ccc(OS(=O)(=O)F)cc3P(C)(C)=O)n1)CN(CC(F)(F)F)CC2.Cl.Cl [Example 7, 4-((5-Chloro-2-((6-methoxy-2-(2,2,2-trifluoroethyl)-1,2,3,4-tetrahydroisoquinolin-7-yl)amino)pyrimidin-4-yl)amino)-3-(dimethyllphosphoryl)phenyl sulfurofluoridate dihydrochloride] | – | – | – | % Inhibition at 1 μM: 37.71%; % Inhibition at 10 μM: 69.74% |
| COc1cc2c(cc1Nc1ncc(Cl)c(Nc3ccc(OS(=O)(=O)F)cc3P(C)(C)=O)n1)CN(CC(F)F)CC2 [Example 8, 4-((5-Chloro-2-((2-(2,2-difluoroethyl)-6-methoxy-1,2,3,4-tetrahydroisoquinolin-7-yl)amino)pyrimidin-4-yl)amino)-3-(dimethylphosphoryl)phenyl sulfurofluoridate dihydrochloride] | 63.7 | 80 | < 50 | – |
